Results taken from ChEMBL document CHEMBL4007416, “Thieno[3,2-b]pyrrole-5-carboxamides as New Reversible Inhibitors of Histone Lysine Demethylase KDM1A/LSD1. Part 2: Structure-Based Drug Design and Structure-Activity Relationship” (J Med Chem, 2017).
pIC50, pKi: −log10 of the molar value. The source made the active and inactive calls. The calls are words filed in the database; no cut-off is given here.

What was measured:
LSD1/CoREST complex [1] = target: T1, LSD1/CoREST complex (Homo sapiens, UniProt O60341); assay: Inhibition of recombinant human KDM1A/CoREST complex expressed in Escherichia coli using [Lys(Me1)4]-Histone H3 (1 to 21 residues)-GGK(biotin) as substrate incubated for 20 mins measured after 1 hr by TR-FRET assay
[2] = test system: CN1CCC(Oc2ccc(OCc3ccccc3NC(=O)c3cc4sccc4n3C)cc2)CC1; assay: Inhibition of recombinant human KDM1A/CoREST complex expressed in Escherichia coli assessed as Km for substrate using H3K4me peptide as substrate preincubated for 15 mins followed by substrate addition measured for 12 mins by Lineweaver-Burk plot analysis
[3] = test system: CN1CCC(Oc2ccc(OCc3ccccc3NC(=O)c3cc4sccc4n3C)cc2)CC1; assay: Inhibition of recombinant human KDM1A/CoREST complex expressed in Escherichia coli assessed as Vmax for substrate using H3K4me peptide as substrate preincubated for 15 mins followed by substrate addition measured for 12 mins by Lineweaver-Burk plot analysis
THP-1 [4] = assay: Induction of apoptosis in human THP1 cells at 1 uM after 72 hrs by Annexin V-propidium iodide double staining based flow cytometry; format: functional, cell-based
MV4-11 = assay: Antiproliferative activity against human MV4-11 cells
NB-4 = assay: Antiproliferative activity against human NB4 cells
THP-1 [5] = assay: Antiproliferative activity against human THP1 cells
[6] = target: Lysine-specific histone demethylase 1A (Homo sapiens) (UniProt O60341); assay: Inhibition of KDM1A in human THP1 cells assessed as increase in CD86 expression level at 0.5 uM after 48 hrs by flow cytometric analysis; format: cell-based
THP-1 [7] = assay: Cell cycle arrest in human THP1 cells at 1 uM after 72 hrs by propidium iodide staining based flow cytometry; format: functional
[8] = target: T2, Amine oxidase [flavin-containing] B (Homo sapiens, UniProt P27338); assay: Inhibition of recombinant human MAOB incubated for 15 mins measured after 30 mins by luminescence-Glo assay
T2 sequence (P27338 whole entry): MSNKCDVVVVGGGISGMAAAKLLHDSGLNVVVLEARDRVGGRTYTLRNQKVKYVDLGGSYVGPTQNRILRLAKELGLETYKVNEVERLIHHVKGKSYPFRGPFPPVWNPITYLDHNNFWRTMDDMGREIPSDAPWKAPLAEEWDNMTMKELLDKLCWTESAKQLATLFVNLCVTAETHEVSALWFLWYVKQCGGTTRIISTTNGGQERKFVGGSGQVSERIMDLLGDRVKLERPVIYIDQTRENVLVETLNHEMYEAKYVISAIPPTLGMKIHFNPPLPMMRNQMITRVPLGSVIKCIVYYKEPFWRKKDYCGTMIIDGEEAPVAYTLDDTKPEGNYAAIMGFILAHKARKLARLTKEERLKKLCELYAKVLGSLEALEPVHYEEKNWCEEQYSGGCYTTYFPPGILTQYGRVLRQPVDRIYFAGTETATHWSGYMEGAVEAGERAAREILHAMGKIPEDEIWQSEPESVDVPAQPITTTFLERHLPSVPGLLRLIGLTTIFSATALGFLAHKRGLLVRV

[9] = target: T3, Amine oxidase [flavin-containing] A (Homo sapiens, UniProt P21397); assay: Inhibition of recombinant human MAOA incubated for 15 mins measured after 30 mins by luminescence-Glo assay
T3 sequence (P21397 whole entry): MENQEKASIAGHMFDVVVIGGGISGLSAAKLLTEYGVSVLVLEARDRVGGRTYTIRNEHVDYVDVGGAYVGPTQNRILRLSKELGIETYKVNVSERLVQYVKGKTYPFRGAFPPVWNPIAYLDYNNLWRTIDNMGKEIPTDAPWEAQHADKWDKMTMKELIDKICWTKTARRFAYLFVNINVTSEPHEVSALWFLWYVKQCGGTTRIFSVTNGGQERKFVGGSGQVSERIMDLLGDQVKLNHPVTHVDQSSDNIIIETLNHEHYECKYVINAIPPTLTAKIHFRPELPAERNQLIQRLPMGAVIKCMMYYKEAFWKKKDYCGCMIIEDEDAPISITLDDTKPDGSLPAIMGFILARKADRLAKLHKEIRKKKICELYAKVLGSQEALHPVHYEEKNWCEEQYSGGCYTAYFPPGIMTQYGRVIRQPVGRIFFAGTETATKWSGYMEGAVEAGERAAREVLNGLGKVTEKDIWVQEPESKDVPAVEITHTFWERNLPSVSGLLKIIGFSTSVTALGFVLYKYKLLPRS

[10] = target: Lysine-specific histone demethylase 1A (Homo sapiens) (UniProt O60341); assay: Inhibition of KDM1A in human THP1 cells assessed as increase in CD11b expression level at 0.5 uM after 48 hrs by flow cytometric analysis; format: cell-based
THP-1 [11] = assay: Anticlonogenic activity against human THP1 cells assessed as inhibition of methylcellulose colony formation at 1 uM after 13 days relative to control; format: functional; conditions: THP-1, 312 h
THP-1 [12] = assay: Induction of apoptosis in human THP1 cells at 0.5 uM after 72 hrs by Annexin V-propidium iodide double staining based flow cytometry; format: functional, cell-based
THP-1 [13] = assay: Cell cycle arrest in human THP1 cells at 0.5 uM after 72 hrs by propidium iodide staining based flow cytometry; format: functional
THP-1 [14] = assay: Anticlonogenic activity against human THP1 cells assessed as inhibition of methylcellulose colony formation at 0.5 uM after 13 days relative to control; format: functional; conditions: THP-1, 312 h
[15] = target: T4, Lysine-specific histone demethylase 2 (Homo sapiens, UniProt Q8NB78); assay: Inhibition of KDM1B (unknown origin)
T4 sequence (Q8NB78 whole entry): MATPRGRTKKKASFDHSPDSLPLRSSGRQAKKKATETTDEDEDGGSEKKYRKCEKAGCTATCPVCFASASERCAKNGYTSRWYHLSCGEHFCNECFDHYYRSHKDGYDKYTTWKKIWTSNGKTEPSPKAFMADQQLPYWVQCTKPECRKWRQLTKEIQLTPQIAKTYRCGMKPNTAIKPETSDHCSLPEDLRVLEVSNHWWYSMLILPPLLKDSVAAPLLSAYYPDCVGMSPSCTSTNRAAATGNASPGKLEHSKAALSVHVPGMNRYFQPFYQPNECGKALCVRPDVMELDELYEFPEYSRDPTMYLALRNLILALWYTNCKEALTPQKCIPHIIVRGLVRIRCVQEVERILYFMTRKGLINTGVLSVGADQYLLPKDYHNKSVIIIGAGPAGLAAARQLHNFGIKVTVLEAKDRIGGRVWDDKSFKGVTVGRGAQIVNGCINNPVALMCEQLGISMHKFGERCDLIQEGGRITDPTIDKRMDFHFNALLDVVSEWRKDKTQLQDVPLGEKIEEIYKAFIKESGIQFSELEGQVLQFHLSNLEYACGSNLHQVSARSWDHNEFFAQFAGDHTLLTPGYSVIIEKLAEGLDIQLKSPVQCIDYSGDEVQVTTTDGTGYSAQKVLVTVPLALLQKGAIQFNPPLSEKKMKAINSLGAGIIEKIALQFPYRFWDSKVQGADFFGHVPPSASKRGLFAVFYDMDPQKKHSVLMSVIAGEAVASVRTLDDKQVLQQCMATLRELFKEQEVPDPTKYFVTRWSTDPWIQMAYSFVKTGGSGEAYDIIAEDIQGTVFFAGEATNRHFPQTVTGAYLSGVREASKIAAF

LSD1/CoREST complex [16] = target: T1, LSD1/CoREST complex; assay: Competitive inhibition of recombinant human KDM1A/CoREST complex expressed in Escherichia coli using H3K4me peptide as substrate preincubated for 15 mins followed by substrate addition measured for 12 mins by Lineweaver-Burk plot analysis

Compound	pIC50 (LSD1/CoREST complex [1])	other results
Cn1c(C(=O)Nc2ccccc2COc2ccc(OC3C[C@H]4CC[C@@H](C3)N4)cc2)cc2sccc21 (stereo not given in full)	6.91	
Cn1c(C(=O)Nc2ccccc2COc2ccc(OC3CCCNCC3)cc2)cc2sccc21 (stereo not given)	7.19	
CCOCc1cccc(NC(=O)c2cc3sccc3n2C)c1COc1ccc(OC2CCNCC2)cc1	7.25	
COCc1ccccc1NC(=O)c1cc2sccc2n1C	< 4.00	
Cn1c(C(=O)Nc2ccccc2CCc2ccc(OC3CCNCC3)cc2)cc2sccc21	6.75	
LSD1/CoREST complex (Homo sapiens) (from UniProt O60341+Q9UKL0)		Km [2]: 1.5 µM; Vmax [3]: 226 µmol/min
Cn1c(C(=O)Nc2ccccc2COc2ccc(OC3CCCNC3)cc2)cc2sccc21 (stereo not given)	6.17	
Cn1c(C(=O)Nc2ccccc2COc2ccc(OC3CCN(Cc4ccccc4)CC3)cc2)cc2sccc21	< 4.00	
CC(C)OCc1cccc(NC(=O)c2cc3sccc3n2C)c1COc1ccc(OC2CCNCC2)cc1	7.18	
CN1CCC(Oc2ccc(OCc3ccc(NC(=O)c4cc5sccc5n4C)cc3)cc2)CC1	5.60	
COc1ccc(NC(=O)c2cc3sccc3n2C)cc1	< 4.00	
CN1CCC(Oc2cccc(OCc3ccccc3NC(=O)c3cc4sccc4n3C)c2)CC1	6.00	
COCc1ccc(NC(=O)c2cc3sccc3n2C)cc1	< 4.00	
Cn1c(C(=O)Nc2ccccc2COc2ccc(CNC(=N)N)cc2)cc2sccc21	5.49	
CN1CCN(Cc2ccc(OCc3ccccc3NC(=O)c3cc4sccc4n3C)cc2)CC1	5.54	
CCn1c(C(=O)Nc2cccc(COC)c2COc2ccc(OC[C@@H]3CCNC3)cc2)cc2sccc21	8.17	Activity (THP-1 [4]): inactive; pIC50 (MV4-11): 5.39; pIC50 (NB-4): 5.54; pIC50 (THP-1 [5]): 5.92; inhibition [6]: Active; Activity (THP-1 [7]): inactive; pIC50 [8]: < 4.00; pIC50 [9]: 4.33; inhibition [10]: Active; inhibition at 1 µM (THP-1 [11]): 63.5%
COCc1cccc(NC(=O)c2cc3sccc3n2C)c1COc1ccc(OC2CCNCC2)cc1	7.12 to 7.13	
Cn1c(C(=O)Nc2ccccc2COc2ccc(NC3CCNCC3)cc2)cc2sccc21	5.60	
N[C@H]1CC[C@H](N[C@@H]2C[C@H]2c2ccccc2)CC1		Activity (THP-1 [12]): inactive; Activity (THP-1 [13]): inactive; inhibition at 0.5 µM (THP-1 [14]): 70%; pIC50 [15]: 4.89; pIC50 [9]: 4.38
Cn1c(C(=O)Nc2ccccc2OCc2ccncc2)cc2sccc21	< 4.00	
COCc1cccc(NC(=O)c2cc3sccc3n2C)c1COc1ccc(OC[C@@H]2CCNC2)cc1	8.08	pIC50 (MV4-11): 5.92; pIC50 (NB-4): 6.40; pIC50 (THP-1 [5]): 5.89; inhibition [6]: Active; pIC50 [8]: < 4.00; pIC50 [9]: 4.60; inhibition [10]: Active
Cn1c(C(=O)Nc2cccc(OCc3ccncc3)c2)cc2sccc21	5.24	
Cn1c(C(=O)Nc2ccccc2COc2ccc(OCC3CNC3)cc2)cc2sccc21	6.21	
CCOCc1cccc(NC(=O)c2cc3sccc3n2C)c1COc1ccc(OC[C@@H]2CCNC2)cc1	8.11	Activity (THP-1 [4]): inactive; pIC50 (MV4-11): 5.60; pIC50 (NB-4): 5.92; pIC50 (THP-1 [5]): 5.62; inhibition [6]: Active; Activity (THP-1 [7]): inactive; pIC50 [8]: < 4.00; pIC50 [9]: 4.38; inhibition [10]: Active; inhibition at 1 µM (THP-1 [11]): 70.5%

Compound	pIC50 (LSD1/CoREST complex [1])	other results
Cn1c(C(=O)Nc2ccccc2COc2ccc(OC3CCNCC3)cc2)cc2sccc21	7.03 to 7.05	
Cn1c(C(=O)Nc2ccccc2COc2ccc(O[C@H]3CC[C@@H](N)CC3)cc2)cc2sccc21	6.92	
CN1CCC(Oc2ccc(OCc3ccccc3NC(=O)c3cc4sccc4n3C)cc2)CC1	6.48 to 6.51	pKi (LSD1/CoREST complex [16]): 5.64
CN1CCC(Oc2ccc(COc3ccccc3NC(=O)c3cc4sccc4n3C)cc2)CC1	6.47	
Cn1c(C(=O)Nc2ccccc2COc2ccc(OCC3CCNCC3)cc2)cc2sccc21	6.83	
Cn1c(C(=O)Nc2ccccc2C(=O)Nc2ccc(OC3CCNCC3)cc2)cc2sccc21	5.66	
Cn1c(C(=O)Nc2ccccc2COc2ccc([C@H]3CC[C@H](N)CC3)cc2)cc2sccc21	6.47	
Cn1c(C(=O)Nc2cccc(CN3CCOCC3)c2COc2ccc(OC3CCNCC3)cc2)cc2sccc21	7.19	
CN1CCC(Oc2ccccc2OCc2ccccc2NC(=O)c2cc3sccc3n2C)CC1	4.17	
Cn1c(C(=O)Nc2ccc(COc3ccncc3)cc2)cc2sccc21	4.33	
Cn1c(C(=O)Nc2ccccc2COc2ccncc2)cc2sccc21	< 4.00	
Cn1c(C(=O)Nc2ccccc2OCC2CCN(CC3CCNCC3)CC2)cc2sccc21	5.77	
Cn1c(C(=O)Nc2ccccc2COc2ccc(OCC3CCNC3)cc2)cc2sccc21 (stereo not given)	7.66	
Cn1c(C(=O)Nc2ccccc2COc2ccc(OC[C@@H]3CCNC3)cc2)cc2sccc21	7.74	
Cn1c(C(=O)Nc2ccccc2COc2ccc(OC3CCNC3)cc2)cc2sccc21 (stereo not given)	6.09	
COc1ccccc1NC(=O)c1cc2sccc2n1C	< 4.00	
CC(=O)N1CCC(Oc2ccc(OCc3ccccc3NC(=O)c3cc4sccc4n3C)cc2)CC1	< 4.00	
COCc1cccc(NC(=O)c2cc3sccc3n2C)c1COc1ccc(OC[C@H]2CCNC2)cc1	7.07	
COCc1cccc(NC(=O)c2cc3sccc3n2C)c1COc1ccc(OC2CCCNCC2)cc1 (stereo not given)	7.53	
CCN1CCC(Oc2ccc(OCc3ccccc3NC(=O)c3cc4sccc4n3C)cc2)CC1	6.35	
Cn1c(C(=O)Nc2ccc(OCc3ccncc3)cc2)cc2sccc21	< 4.00	
Cn1c(C(=O)Nc2ccccc2COc2ccc(N3CCNCC3)cc2)cc2sccc21	5.82	
CNCCCOc1ccc(OCc2ccccc2NC(=O)c2cc3sccc3n2C)cc1	5.89	
